Values of other authors, collected in PubChem BioAssay AID1259409 (Chemical Carcinogenesis Research Information System (CCRIS), 2018).
Where “and” joins values, the source holds several entries; their conditions need not be identical. Equal values may be shown once.

Test system: rodent chemically induced tumor inhibition, incidence and multiplicity
Assay: CCRIS tumor inhibitor studies
Conditions: Route [Inhibitor]: ORAL, Species: RAT

CC1=C(/C=C/C(C)=C/C=C/C(C)=C/C(=O)Nc2ccc(O)cc2)C(C)(C)CCC1
tumour outcome (control, treated, inhibition, significance) (Carcinogen: N-METHYL-N'-NITROSOUREA, 684-93-5, Dose [Inhibitor]: 0, 782 MG/KG IN DIET FOR DURATION OF STUDY BEGINNING 60 D PRIOR TO CARCINOGEN DOSE (STUDY DURATION: 240 D), Strain/Sex: SPRAGUE-DAWLEY/FEMALE, Target Tissue: Type of Lesion: MAMMARY GLAND: TUMOR, Dose [Carcinogen]: 50 MG/KG BW ONCE, Promoter: NONE USED): 80%, 28%, 65%, p<0.oo5 and 68%, 42%, 38%, p<0.005 | tumour outcome (control, treated, inhibition, significance) (Carcinogen: N-METHYL-N-NITROSOUREA [684-93-5], Dose [Inhibitor]: 2 MMOL/KG IN DIET FOR 6 WK BEGINNING 4 WK POST LAST CARCINOGEN DOSE (STUDY DURATION: 11 WK), Strain/Sex: SPRAGUE-DAWLEY/FEMALE, Target Tissue: Type of Lesion: MAMMARY GLAND: CARCINOMA, Dose [Carcinogen]: 50 MG/KG BW IP 1X/WK FOR 2 WK (STUDY DURATION: 11 WK), Promoter: NONE): 95.4%, 87.5%, 8.3% | tumour outcome (control, treated, inhibition, significance) (Carcinogen: N-METHYL-N-NITROSOUREA [684-93-5], Dose [Inhibitor]: 2 MMOL/KG IN DIET FOR 10 WK BEGINNING 2 D POST LAST CARCINOGEN DOSE (STUDY DURATION: 11 WK), Strain/Sex: SPRAGUE-DAWLEY/FEMALE, Target Tissue: Type of Lesion: MAMMARY GLAND: CARCINOMA, Dose [Carcinogen]: 50 MG/KG BW IP 1X/WK FOR 2 WK (STUDY DURATION: 11 WK), Promoter: NONE): 95.4%, 45.0%, 53%, p<0.05 | tumour outcome (control, treated, inhibition, significance) (Carcinogen: N-METHYL-N-NITROSOUREA [684-93-5], Dose [Inhibitor]: 196 MG/KG DIET BEGINNING 7 D PRIOR TO CARCINOGEN DOSE (STUDY DURATION: 187 D), Strain/Sex: SPRAGUE-DAWLEY/FEMALE, Target Tissue: Type of Lesion: MAMMARY GLAND: ADENOCARCINOMA, Dose [Carcinogen]: 50 MG/KG BW ONCE AT 100 D OF AGE): 23/40 (57%), 17/40 (43%), 24.6%,p<0.01 | tumour outcome (control, treated, inhibition, significance) (Carcinogen: N-METHYL-N-NITROSOUREA [684-93-5], Dose [Inhibitor]: 586 MG/KG DIET BEGINNING 3 D POST-CARCINOGEN DOSE (STUDY DURATION: 150 D), Strain/Sex: SPRAGUE-DAWLEY/FEMALE, Target Tissue: Type of Lesion: MAMMARY GLAND: ADENOCARCINOMA, Dose [Carcinogen]: 50 MG/KG BW ONCE AT 50 D OF AGE): 25/25 (100%), 24/25 (96%), 4%, not significant | tumour outcome (control, treated, inhibition, significance) (Carcinogen: N-METHYL-N-NITROSOUREA, 684-93-5, Dose [Inhibitor]: 0, 1 MMOL/KG IN DIET FOR 7 MO BEGINNING 7 MO POST CARCINOGEN DOSE (STUDY DURATION: 14 MO), Strain/Sex: LOBUND WISTAR/MALE, Target Tissue: Type of Lesion: PROSTATE: ADENOCARCINOMA, Dose [Carcinogen]: 30 MG/KG BW ONCE, Promoter: TESTOSTERONE PROPIONATE, 57-85-2): 16/18 (89%), 4/19 (21%), 76%, p<0.001 | tumour outcome (control, treated, inhibition, significance) (Carcinogen: N-METHYL-N-NITROSOUREA, 684-93-5, Dose [Inhibitor]: 0, 328 MG/KG OF DIET FOR DURATION OF STUDY BEGINNING 1 WK PRIOR TO CARCINOGEN TREATMENT (STUDY DURATION: 117 D), Strain/Sex: SPRAGUE-DAWLEY/FEMALE, Target Tissue: Type of Lesion: MAMMARY GLAND: ADENOCARCINOMA, Dose [Carcinogen]: 50 MG/KG BW ONCE, Promoter: NONE USED): 100%, 84%, 16%, not significant | tumour outcome (control, treated, inhibition, significance) (Carcinogen: N-METHYL-N-NITROSOUREA, 684-93-5, Dose [Inhibitor]: 0, 391 MG/KG DIET BEGINNING AFTER THE SURGICAL REMOVAL OF THE FIRST PALPABLE TUMOR (STUDY DURATION: LIFETIME), Strain/Sex: SPRAGUE-DAWLEY/FEMALE, Target Tissue: Type of Lesion: MAMMARY GLAND: TUMOR, Dose [Carcinogen]: 35 MG/KG ONCE AT 50 DAYS OF AGE, Promoter: NONE USED): 93%, 95%, -2%, not calculated | tumour outcome (control, treated, inhibition, significance) (Carcinogen: N-METHYL-N-NITROSOUREA, 684-93-5, Dose [Inhibitor]: 0, 782 MG/KG DIET BEGINNING AFTER THE SURGICAL REMOVAL OF THE FIRST PALPABLE TUMOR (STUDY DURATION: LIFETIME), Strain/Sex: SPRAGUE-DAWLEY/FEMALE, Target Tissue: Type of Lesion: MAMMARY GLAND: TUMOR, Dose [Carcinogen]: 35 MG/KG ONCE AT 50 DAYS OF AGE, Promoter: NONE USED): 93%, 89%, 4%, not calculated | tumour outcome (control, treated, inhibition, significance) (Carcinogen: N-METHYL-N-NITROSOUREA, 684-93-5, Dose [Inhibitor]: 0, 782 MG/KG DIET REDUCED TO 391 MG/KG DIET 2 WK POST CARCINOGEN DOSE (STUDY DURATION: 450 D), Strain/Sex: WISTAR-UNILEVER/MALE, Target Tissue: Type of Lesion: PROSTATE/SEMINAL VESICLE: ADENOCARCINOMA, Dose [Carcinogen]: 50 MG/KG BW ONCE, Promoter: TESTOSTERONE PROPIONATE, 57-85-2): 67%, 62%, 7%, not significant | tumour outcome (control, treated, inhibition, significance) (Carcinogen: N-METHYL-N-NITROSOUREA, 684-93-5, Dose [Inhibitor]: 0, 782 MG/KG OF CASEIN-BASED AIN-76A DIET FOR DURATION OF STUDY BEGINNING 7 D POST CARCINOGEN DOSE (STUDY DURATION: 25 W, Strain/Sex: F344/FEMALE, Target Tissue: Type of Lesion: MAMMARY GLAND: TUMOR, Dose [Carcinogen]: 45 MG/KG BW ONCE AT 5O D OF AGE, Promoter: NONE USED): 18/25 (72%), 20/25 (80%), -11%, not significant | tumour outcome (control, treated, inhibition, significance) (Carcinogen: N-METHYL-N-NITROSOUREA, 684-93-5, Dose [Inhibitor]: 0, 782 MG/KG OF DIET FOR DURATION OF STUDY BEGINNING 1 WK PRIOR TO CARCINOGEN TREATMENT (STUDY DURATION: 117 D), Strain/Sex: SPRAGUE-DAWLEY/FEMALE, Target Tissue: Type of Lesion: MAMMARY GLAND: ADENOCARCINOMA, Dose [Carcinogen]: 50 MG/KG BW ONCE, Promoter: NONE USED): 100%, 42%, 58%, not calculated | tumour outcome (control, treated, inhibition, significance) (Carcinogen: N-METHYL-N-NITROSOUREA, 684-93-5, Dose [Inhibitor]: 0, 782 MG/KG OF GRAIN-BASED NIH-07 DIET FOR DURATION OF STUDY BEGINNING 7 D PRIOR TO CARCINOGEN DOSE (STUDY DURATION: 26, Strain/Sex: F344/FEMALE, Target Tissue: Type of Lesion: MAMMARY GLAND: TUMOR, Dose [Carcinogen]: 45 MG/KG BW ONCE AT 50 D OF AGE, Promoter: NONE USED): 13/25 (52%), 7/25 (28%), 46%, not significant
